Data: US20240342156A1, “METHODS FOR TREATING PAIN” (Xenon Pharmaceuticals Inc., priority 2019, published 2024)
Where two headings read alike, the source gives them in different places.

Legend:
[1] = tested on: rat spinal nerve ligation (SNL)/Chung model of neuropathic pain; assay: Spinal nerve ligation (SNL)/Chung model, thermal allodynia, cold plate test on lesioned paw; assay type: in vivo
Description: Objective: The efficacy of Compound A was assessed using the rat spinal nerve ligation (SNL)/Chung model of neuropathic pain. The SNL model in rats was developed as described previously (Chung J M, Kim H K, Chung K. “Segmental spinal nerve ligation model of neuropathic pain.” Methods Mol. Med. 99 (2004) 35-45).
Study Design. Briefly, on Day 0, von Frey and cold plate tests were used for baseline measurements of tactile and cold allodynia respectively. Post-baseline measurements, rats (171-209 g male Sprague Dawley) were anesthetized and an incision at the L4-S2 level was performed to expose the left L5 nerve. […] The wound was then sutured and the rats were allowed to recover. On Day 13, post-surgery baselines for tactile and cold allodynia were measured to verify neuropathic pain. Animals were assigned to treatment groups based on the post-surgery baseline score.
Dosing: For efficacy testing, Compound A was dosed orally once a day for 5 consecutive days from Day 14-18.
The cold plate apparatus was maintained at 4±1° C. and was surrounded by an acrylic glass enclosure. Rats were placed on the plate for a period of 5 minutes. The latency to 1st paw-withdrawal, total number of paw withdrawals, and total duration of withdrawal responses were recorded for the surgery hind paw.

[2] = Crossover study with pharmacokinetic analysis, single oral dose in healthy male subjects; assay type: in vivo, human; conditions: for concentration at 6 days: oral, subjects who received placebo in Period 2
From the text: The pharmacokinetics (PK), safety, and tolerability of single doses of Compound A in healthy right-handed male human subjects were investigated in a randomized, double-blind, placebo-controlled, transcranial magnetic stimulation (TMS) crossover study.
An objective of the study was to evaluate the safety, tolerability, and pharmacokinetics of single doses of Compound A in healthy male subjects.
Twenty healthy right-handed male subjects were enrolled and randomized in a blinded fashion to receive a single oral dose of 20 mg Compound A or placebo (1:1 randomization ratio) on Day 1, then were crossed over to receive a single dose of the other treatment on Day 7.
Subjects were screened within 27 days prior to entering the study on Day 1. For Period 1, subjects were admitted to the study unit and dosed on Day 1, and discharged on Day 2. For Period 2, following a washout of 6 days, the same subjects were again admitted to the study unit and dosed on Day 7, and discharged on Day 8. All subjects returned to the clinical unit for an outpatient visit on Day 14, and received a follow-up telephone call on Day 37.
Subjects were dosed in a fed state, but the timing of dosing relative to meals was changed during the study, and varied between a high fat or standard meal eaten either 2 h or 30 minutes prior to dosing, and a high fat or standard meal eaten 1 h or 2.5 h after dosing.
The PK parameters for this study were summarized in two ways. Firstly, PK parameters were calculated where possible using the PK samples collected during each 24 h sampling period for Period 1 and Period 2 separately. Secondly, PK parameters were determined using samples beyond the 24 h sampling period (i.e., from Day 7/8 and/or Day 14). For subjects who received Compound A in the first period, PK samples taken prior to placebo treatment provided additional PK timepoints at >24 h. For subjects who received Compound A in the second period, there was no >24 h PK timepoint until a Day 14 PK sample was added. […] The full PK profile data set consists of the 16 subjects for whom PK samples were taken at >24 h post-dose. For discussion of the PK parameters below, the full PK profile data set was generally used, because it allowed more accurate estimation of PK parameters.
Initially, subjects were dosed 2 hours after a high fat meal with a relatively high fat lunch provided 1 hour after dosing. After blinded review of the PK profiles in the initial 8 subjects, the fat content of the lunch was reduced in an attempt to reduce the time to Tmax. In addition, the timing of the meal relative to dose was changed from 2 hours prior, to 30 minutes prior to dose and subsequently the fat content of the breakfast was reduced. The timing and type of meal for each subject is specified in Table 8. […] As such the PK data is presented without categorization according to meal content, or relative timing of the meal.

[3] = Day 18 at 2 h, 8 mg/kg p.o. once daily Day 14-18
[4] = Day 18 at 2 h, 16 mg/kg p.o. once daily Day 14-18
[5] = Day 18 at 2 h, 24 mg/kg p.o. once daily Day 14-18
[6] = 20 mg single oral dose, fed, Full PK Profile (N = 16)
[7] = 20 mg single oral dose, fed, Overall (N = 20)
[8] = 20 mg single oral dose, fed, Period 1 (N = 10)
[9] = 20 mg single oral dose, fed, Period 2 (N = 10)
[10] = 20 mg single oral dose, full PK data set

Question: Which results are given for `Cc1cc(N2CCc3cc(F)ccc3C2)cc(C)c1NC(=O)CC(C)(C)C` [Compound A, N-[4-(6-fluoro-3,4-dihydro-TH-isoquinolin-2-yl)-2,6-dimethylphenyl]-3,3-dimethylbutanamide]?
Answer: Latency to first paw-withdrawal (s), Mean ± s.e.m. ([1]; Day 14 at 2 h, 8 mg/kg p.o.): 226.8 ± 29.4 s; Latency to first paw-withdrawal, compared with Vehicle (p.o.), Δ% ([1]; Day 14 at 2 h, 8 mg/kg p.o.): +74%; Number of withdrawal responses, Mean ± s.e.m. ([1]; Day 14 at 2 h, 8 mg/kg p.o.): 2.1 ± 0.8; Number of withdrawal responses, compared with Vehicle (p.o.), Δ% ([1]; Day 14 at 2 h, 8 mg/kg p.o.): −79%; Total duration of withdrawal responses (s), Mean ± s.e.m. ([1]; Day 14 at 2 h, 8 mg/kg p.o.): 3.4 ± 3.4 s; Total duration of withdrawal responses, compared with Vehicle (p.o.), Δ% ([1]; Day 14 at 2 h, 8 mg/kg p.o.): +55%; Latency to first paw-withdrawal (s), Mean ± s.e.m. ([1]; Day 14 at 2 h, 16 mg/kg p.o.): 214.9 ± 29.2 s; Latency to first paw-withdrawal, compared with Vehicle (p.o.), Δ% ([1]; Day 14 at 2 h, 16 mg/kg p.o.): +65%; Number of withdrawal responses, Mean ± s.e.m. ([1]; Day 14 at 2 h, 16 mg/kg p.o.): 3.0 ± 1.7; Number of withdrawal responses, compared with Vehicle (p.o.), Δ% ([1]; Day 14 at 2 h, 16 mg/kg p.o.): −70%; Total duration of withdrawal responses (s), Mean ± s.e.m. ([1]; Day 14 at 2 h, 16 mg/kg p.o.): 0.8 ± 0.7 s; Total duration of withdrawal responses, compared with Vehicle (p.o.), Δ% ([1]; Day 14 at 2 h, 16 mg/kg p.o.): −64%; Latency to first paw-withdrawal (s), Mean ± s.e.m. ([1]; Day 14 at 2 h, 24 mg/kg p.o.): 280.0 ± 20.0 s; Latency to first paw-withdrawal, compared with Vehicle (p.o.), Δ% ([1]; Day 14 at 2 h, 24 mg/kg p.o.): +115%; Number of withdrawal responses, Mean ± s.e.m. ([1]; Day 14 at 2 h, 24 mg/kg p.o.): 0.9 ± 0.9; Number of withdrawal responses, compared with Vehicle (p.o.), Δ% ([1]; Day 14 at 2 h, 24 mg/kg p.o.): −91%; Total duration of withdrawal responses (s), Mean ± s.e.m. ([1]; Day 14 at 2 h, 24 mg/kg p.o.): 0.0 ± 0.0 s; Total duration of withdrawal responses, compared with Vehicle (p.o.), Δ% ([1]; Day 14 at 2 h, 24 mg/kg p.o.): −100%; thermal allodynia endpoint, comparison with morphine (128 mg/kg) ([1]; Day 18 (FIGS. 7-9), at both 16 and 24 mg/kg): outperformed morphine; Latency to first paw-withdrawal (s), Mean ± s.e.m. [1, 3]: 180.4 ± 26.5 s; Latency to first paw-withdrawal, compared with Vehicle (p.o.), Δ% [1, 3]: +92%; Number of withdrawal responses, Mean ± s.e.m. [1, 3]: 7.7 ± 2.8; Number of withdrawal responses, compared with Vehicle (p.o.), Δ% [1, 3]: −29%; Total duration of withdrawal responses (s), Mean ± s.e.m. [1, 3]: 1.3 ± 0.9 s; Total duration of withdrawal responses, compared with Vehicle (p.o.), Δ% [1, 3]: −88%; Latency to first paw-withdrawal (s), Mean ± s.e.m. [1, 4]: 257.0 ± 23.5 s; Latency to first paw-withdrawal, compared with Vehicle (p.o.), Δ% [1, 4]: +173%; Number of withdrawal responses, Mean ± s.e.m. [1, 4]: 1.3 ± 2.8; Number of withdrawal responses, compared with Vehicle (p.o.), Δ% [1, 4]: −88%; Total duration of withdrawal responses (s), Mean ± s.e.m. [1, 4]: 0.0 ± 0.0 s; Total duration of withdrawal responses, compared with Vehicle (p.o.), Δ% [1, 4]: −100%; Latency to first paw-withdrawal (s), Mean ± s.e.m. [1, 5]: 263.8 ± 24.3 s; Latency to first paw-withdrawal, compared with Vehicle (p.o.), Δ% [1, 5]: +180%; Number of withdrawal responses, Mean ± s.e.m. [1, 5]: 0.6 ± 0.5; Number of withdrawal responses, compared with Vehicle (p.o.), Δ% [1, 5]: −94%; Total duration of withdrawal responses (s), Mean ± s.e.m. [1, 5]: 0.0 ± 0.0 s; Total duration of withdrawal responses, compared with Vehicle (p.o.), Δ% [1, 5]: −100%; Clast (ng/mL), Mean ± SD [2, 6]: 4.52 ± 1.82 ng/mL; Clast (ng/mL), Range [2, 6]: 1.33 to 7.67 ng/mL; Tlast (h), Mean ± SD [2, 6]: 235 ± 81.5 h; Tlast (h), Range [2, 6]: 142 to 360 h; Clast (ng/mL), Mean ± SD [2, 7]: 16.4 ± 4.69 ng/mL; Clast (ng/mL), Range [2, 7]: 7.1 to 27.8 ng/mL; Tlast (h), Mean ± SD [2, 7]: 23.8 ± 0.299 h; Tlast (h), Range [2, 7]: 23.1 to 24.3 h; Tmax (h), Median [2, 7]: 7.83 h; Tmax (h), Range [2, 7]: 1.92 to 12 h; Clast (ng/mL), Mean ± SD [2, 8]: 16.4 ± 5.61 ng/mL; Clast (ng/mL), Range [2, 8]: 10.1 to 27.8 ng/mL; Tlast (h), Mean ± SD [2, 8]: 23.8 ± 0.375 h; Tlast (h), Range [2, 8]: 23.1 to 24.3 h; Clast (ng/mL), Mean ± SD [2, 9]: 16.4 ± 3.87 ng/mL; Clast (ng/mL), Range [2, 9]: 7.1 to 21.3 ng/mL; Tlast (h), Mean ± SD [2, 9]: 23.8 ± 0.213 h; Tlast (h), Range [2, 9]: 23.5 to 24.1 h; extrapolated area (% AUCextrap), median [2, 10]: 19.9%; extrapolated area (% AUCextrap), range [2, 10]: 10.6-40.5%; concentration at 6 days ([2]; male, human, plasma, 20 mg, read-out: Compound A levels after washout between periods, mean): 3.1 ng/mL; concentration at 6 days ([2]; male, human, plasma, 20 mg, read-out: Compound A levels after washout between periods, range): 1.3 to 6.8 ng/mL; concentration at 2 h ([2]; male, human, plasma, po, 20 mg, 2 h timepoint, 20 mg single oral dose, full PK profile, read-out: mean SD plasma concentration): 15.9 ± 21.4 ng/mL; concentration at 4 h ([2]; male, human, plasma, po, 20 mg, 4 h timepoint, 20 mg single oral dose, full PK profile, read-out: mean SD plasma concentration): 30.2 ± 21.1 ng/mL; concentration at 6 h ([2]; male, human, plasma, po, 20 mg, 6 h timepoint, 20 mg single oral dose, full PK profile, read-out: mean SD plasma concentration): 42.1 ± 19.1 ng/mL; AUC(0-inf) ([2]; male, human, plasma, 20 mg single oral dose, fed, Full PK Profile Data Set (N = 16), read-out: AUCinf (ng*h/mL), Range): 1920 to 7390 ng·h/mL; AUC(0-t) ([2]; male, human, plasma, 20 mg single oral dose, fed, Full PK Profile Data Set (N = 16), read-out: AUClast (ng*h/mL), Range): 1580 to 4400 ng·h/mL; CL/F ([2]; male, human, plasma, 20 mg single oral dose, fed, Full PK Profile Data Set (N = 16), read-out: CL/F normalized (mL/h/kg), Range): 40.3 to 136 mL/h/kg; MRT inf ([2]; male, human, plasma, 20 mg single oral dose, fed, Full PK Profile Data Set (N = 16), read-out: MRTinf (h), Range): 33 to 304 h; MRT last ([2]; male, human, plasma, 20 mg single oral dose, fed, Full PK Profile Data Set (N = 16), read-out: MRTlast (h), Range): 48.2 to 122 h; Vd/F ([2]; male, human, plasma, 20 mg single oral dose, fed, Full PK Profile Data Set (N = 16), read-out: Vz/F normalized (L/kg), Range): 6.4 to 33.8 L/kg; Tmax ([2]; male, human, plasma, 20 mg single oral dose, fed, Overall (N = 20), read-out: Tmax (h), Median): ~8 h
